Measurements published in patent publication US20260085283A1, “STEM CELL-DERIVED GASTRULOID MODEL, METHOD FOR CONSTRUCTING SAME, AND USE” (Innovation Center of Suzhou Nanjing Medical University, priority 2022, published 2026).

Test system: gastruloid model induced from human induced pluripotent stem cells DYR0100
Assay: Thalidomide dosing of the in vitro gastruloid induction model (early embryonic teratogenesis model test)
[1] = day 7, dosed group (5 μM and 10 μM) compared with the control group
[2] = day 7, with the increase of dosed concentration (5 μM, 10 μM), significant statistical difference vs blank control and dimethyl sulfoxide control
[3] = day 7 samples, dosed group (5 μM and 10 μM) compared with the control group

Description: Two gradients of 5 μM and 10 μM were selected, and a blank control group and a dimethyl sulfoxide group (with thalidomide solvent) were added for testing.
When human induced pluripotent stem cells DYR0100 grew to 80-90% confluence, TrypLE Select was used to digest the cells into single cells, and the cells were resuspended in PBS to obtain a cell suspension 1; cell suspension 1 containing 9.0×10^4 cells was taken, 2 mL of the G1ER culture medium containing Y-27632 was added to resuspend the cells, and then 5 μM, 10 μM of 1% % thalidomide, dimethyl sulfoxide solution and a blank control group were added respectively, a total of 4 groups, to obtain a cell suspension 2; the cell suspension 2 was inoculated into a well of an Agreewell 400™ culture dish coated with the anti-adhesion solution (Anti-adhesion rinsing Solution) in advance. After centrifugation at 800 rpm for 2 minutes using a horizontal centrifuge, the cell amount per microwell was 50-75 cells (each well of the Agreewell 400™ culture dish has 1200 microwells, that is, the cell amount in each microwell was 9.0×10^4/1200=75 cells).
On day 2 of the culture, half of the culture medium was replaced with the G1ER culture medium, and 5 μM and 10 μM of 1% % thalidomide, dimethyl sulfoxide solution and a blank control were added respectively. Half of the culture medium was replaced every day until day 3 of the culture.
When the first stage of induction was completed, samples were taken from the four groups, and recorded with white light, then 4% paraformaldehyde was used for fixation for 30 minutes, and relevant immunofluorescence staining was performed for statistical verification.
On day 3 of the culture, 1.75 mL of the first-stage GIER culture medium was discarded, and the second-stage G2EE culture medium was added slowly along the wall, 5 μM and 10 μM of 1% thalidomide, dimethyl sulfoxide solution and a blank control were added respectively, to prevent the formed gastruloids from floating up from the microwells and then fusing.
On day 4 of the culture, 1.75 mL of the second-stage G2EE culture medium was discarded, and the third-stage aG2EE culture medium was added slowly along the wall, and 5 μM and 10 μM of 1% % thalidomide, dimethyl sulfoxide solution and a blank control were added respectively, to prevent the formed gastruloids from floating up from the microwells and then fusing.
On day 5 of the culture, 1.75 mL of the third-stage aG2EE culture medium was discarded, and the fourth-stage bG2EE culture medium was added slowly along the wall, and 5 μM and 10 μM of 1% % thalidomide, dimethyl sulfoxide solution and a blank control were added respectively, to prevent the formed gastruloids from floating up from the microwells and then fusing. After 24 hours, the culture medium was continuously replaced by 1.75 mL (the bG2EE culture medium) and cultured until day 7.
When the four-stage induction was completed, samples were taken from the four groups, and recorded the white light, then 4% paraformaldehyde was used to fix for 30 minutes, and relevant cell nucleus staining was performed for statistical verification.

In the case of O=C1CCC(N2C(=O)c3ccccc3C2=O)C(=O)N1 (stereo not drawn) [Thalidomide], the “formation of amniotic cavity and yolk sac (DAPI staining)” value [1] is reported as “could not be formed”, the “internal structure of the gastruloids (DAPI staining of cell nucleus)” value [1] is reported as “relatively disordered” and the “cell amount of the single gastruloid” value [2] is reported as “decreased”. For the same molecule, the “volume of the single gastruloid” value [2] was “decreased”, the “internal cavity structure of the gastruloids (white light results)” value [3] was “absent” and the “volume of the gastruloids (white light results)” value [3] was “reduced volume”.
